From patent US20050209295A1, “Methimazole derivatives and tautomeric cyclic thiones to inhibit cell adhesion” (priority 2004, published 2005)

What was measured:
Type in all cases: cell-based, human
VCAM-1 = experiment: TNF-alpha-induced VCAM-1 RNA levels in aortic endothelial cells (Northern blot); details: aortic endothelial cells, mean ± SD
Description: (§1) Cell culture and treatment of HAEC: Human aortic endothelial cells (HAEC; Cambrex Bio Science Walkersville, Inc., Walkersville, Md.) are cultured in M199 supplemented with 8% FBS, 100 μg/ml heparin, 10 ng/ml endothelial growth factor, 100 μg/ml hypothalamus extract, 2 mM L-glutamine, 1% non-essential amino acids, 100 units/ml penicillin and 100 μg/ml streptomycin. HAEC are subcultured on gelatin pre-coated: 96-well tissue culture plates (Corning Incorporated; Corning, N.Y.) for viability assays and ELISA; 100-mm tissue culture dishes (BD Falcon; Franklin Lakes, N.J.) for Northern blot analyses, Western blot analyses and EMSA; 35-mm tissue culture dishes (Corning) for adhesion assays and on 24-well tissue culture plates for luciferase promoter assays (BD Falcon). All experiments are performed with confluent HAEC monolayers. Unless noted otherwise, HAEC are treated with 25 ng/ml TNF-α, in the absence or presence of C-10 or 0.25% DMSO (carrier control for C-10), for 2-24 hrs. The concentration of DMSO is held constant at 0.25% (unless indicated otherwise) for all of the C-10 conditions.
(§2) HAEC are washed with PBS and total RNA extracted using a commercial kit (RNeasy Mini Kit; Qiagen Inc.; Valencia, Calif.). 12 μg of total RNA per lane is resolved on 1% denaturing agarose gels containing 0.66M formaldehyde. Gels are capillary blotted on Nytran membranes (Schleicher and Schuell Inc.; Keene, N.H.), UV cross-linked, and used for hybridization. The probe for IRF-1 has been previously described (33). The G3PDH cDNA is from Clontech (Palo Alto, Calif.). […]; cDNAs are labeled with α-^32P-dCTP using the Ladderman Labeling Kit (Takara Biochemical Inc.; Berkeley, Calif.) (33). Northern blots are developed using a BAS 1500 Bioimaging Analyzer (Fuji Photo Film Co., Ltd. Medical Systems USA Inc.; Stanford, Calif.). Each experiment is replicated at least twice.

VCAM-1 promoter = experiment: TNF-alpha-induced VCAM-1 promoter activity, dual luciferase reporter assay in HAEC; details: hVCAM-1(−228 to +12)-luciferase construct, mean ± SD; for inhibition at 5000 µM: Homo sapiens
Description: as §1
Dual Luciferase Assay: Four human VCAM-1 promoter deletion constructs of different length, −1641/+12, −288/+12, −228/+12, −85/+12 bp are amplified by PCR from human genomic DNA. Each upstream primer contained a restriction endonuclease Mlu I site located at the 5′-end of the primer. The downstream primer corresponding to the +12 end contained a restriction endonuclease Xho I site at the 5′-end. The PCR products are digested by Mlu I and Xho I (New England Biolabs Inc., Beverly, Mass.) and ligated into a similarly digested pGL3 basic luciferase reporter vector (Promega, Madison, Wis.). Cells are transfected for 24 hrs. with 400 ng of indicated constructs, or pGL3 basic luciferase reporter vector as control, using GeneJuice transfection reagent (Novagen Inc., Madison, Wis.). All cells are also transfected with phRL-TK (Int−) vector (Promega), which contains wildtype Renilla luciferase (Rluc) as an “internal” transfection control. Luciferase assays are conducted with the Dual-Luciferase Reporter Assay System (Promega) on a Lumat LB 9507 tube luminometer. In every experiment, each condition is run in triplicate wells. Each experiment is replicated at least twice.

IRF-1 [1] = experiment: TNF-alpha-induced IRF-1 RNA levels (Northern blot); details: mean ± SD
Description: as §1, §2

IRF-1 [2] = experiment: TNF-alpha-induced IRF-1 protein levels (Western blot); details: mean ± SD
Description: as §1
Western blot analysis: Whole cell lysates are prepared in lysis buffer (150 mM NaCl, 1% IGEPAL CA-630, 50 mM Tris-HCL pH 8.0). 20 μg of lysates are then resolved on 4-12% Bis-Tris PAGE gels under denaturing conditions using the NuPAGE Bis-Tris System (Invitrogen; Carlsbad, Calif.). Proteins are transferred to nitrocellulose membranes, which are probed with IRF-1 antibody. Subsequent binding of HRP conjugated goat anti-rabbit Ab (sc-2054, Santa Cruz Biotechnology, Inc.) is detected using Lumigen PS-3 detection reagents (Amersham Pharmacia Biotech.; Piscataway, N.J.).

Row | Compound | % INHIBITION of TNF-alpha-induced VCAM-1 RNA levels (VCAM-1; 5.0 mM) | % INHIBITION of TNF-alpha-induced VCAM-1 RNA levels (VCAM-1; 10 :M) | % INHIBITION of TNF-alpha-induced VCAM-1 RNA levels (VCAM-1; 100 :M) | % INHIBITION of TNF-alpha-induced VCAM-1 promoter activity (VCAM-1 promoter; 10 :M) [%] | % INHIBITION of TNF-alpha-induced VCAM-1 promoter activity (VCAM-1 promoter; 100 :M) [%] | inhibition at 5000 µM (VCAM-1 promoter; 5.0 mM) [%] | % INIHIBITION of TNF-alpha-induced IRF-1 RNA levels (IRF-1 [1]; 5 mM) [%] | % INIHIBITION of TNF-alpha-induced IRF-1 RNA levels (IRF-1 [1]; 10 :M) [%] | % INIHIBITION of TNF-alpha-induced IRF-1 RNA levels (IRF-1 [1]; 100 :M) [%] | % INHIBITION of TNF-alpha-induced IRF-1 Protein levels (IRF-1 [2]; 10 :M) [%] | % INHIBITION of TNF-alpha-induced IRF-1 Protein levels (IRF-1 [2]; 100 :M) [%] | inhibition at 5000 µM (IRF-1 [2]; Homo sapiens, 5 mM) [%] | % INHIBITION of TNF-alpha-induced VCAM-1 promoter activity (VCAM-1 promoter; 5.0 mM) [%] | % INHIBITION of TNF-alpha-induced IRF-1 Protein levels (IRF-1 [2]; 5 mM) [%]
1 | Sc1nc2ccccc2[nH]1 [2-mercaptobenzimidazole, 2-Mercaptobenzimidazole] | 26 ± 10% | 0% | 0% | 0 | 0 | 30 ± 4 |  |  |  |  |  |  |  | 
2 | Cn1ccnc1S [Methimazole, 1-Methylimidazole-2-thiol] | 20 ± 10% | 0% | 0% |  |  | 0 | 27 ± 12 | 0 | 0 | 0 | 0 | 17 ± 6 |  | 
3 | Cc1cnc(S)n1C [5-methylmethimazole, 5-Methylmethimazole] |  |  |  | 0 | 0 | 14 ± 8 |  |  |  |  |  |  |  | 
4 | 1-Methyl-2-Thiomethyl-5(4)nitroimidazole | 92 ± 5% | 34 ± 6% | 83 ± 10% | 29 ± 6 | 54 ± 10 |  | 95 ± 12 | 26 ± 12 | 64 ± 16 | 46 ± 15 | 69 ± 10 |  | 58 ± 6 | 95 ± 12
5 | Cc1ccc2[nH]c(S)nc2c1 [2-mercapto-5-methylbenzimididazole, 2-Mercapto-5-methylbenzimidazole] | 11 ± 7% |  |  |  |  |  |  |  |  |  |  |  |  | 
6 | Cn1ccn(C)c1=S [N-methylmethimazole, N-Methylmethimazole] | 47 ± 12% | 0% | 31 ± 10% | 6 ± 2 | 44 ± 11 | 31 ± 3 | 75 ± 14 | 0 | 34 ± 15 |  |  |  |  | 
7 | Sc1ncc[nH]1 [2-mercaptoimidazole, 2-Mercaptoimidazole] | None | None | None |  |  | 0 | 0 | 0 | 0 |  |  |  |  | 
